In EP0986381B1, “USE OF DITERPENES LIKE HYPOESTOXIDES FOR THE MANUFACTURE OF A MEDICAMENT FOR IMMUNOSUPPRESSION, ANTICANCER AND ANTIVIRAL TREATMENT” (Immune Modulation, Inc., priority 1997, dated 1998):

Assays:
human PBMCs = test: Toxicity on human PBMC, trypan blue dye exclusion; format: cell-based; conditions: 1.25, 2.5 and 5 µg/mL; 2, 5 and 7 days
Procedure: In order to determine if JO-4 was toxic on human cells in vitro, human PBMCs were cultured in the absence or presence of varying concentrations of JO-4 (1.25, 2.5, and 5 µg/mL) for different days (2, 5 and 7 days). At the end of each incubation period, viability of cells was determined by trypan blue dye exclusion method.

[1] = test system: human malignant melanoma (RPMI-7951); test: Colorimetric MTT cytotoxicity assay, RPMI-7951; format: cell-based; conditions: RPMI-7951, 72 hours
Procedure: The following materials and methods were employed in the non-limiting Examples set out below. Tumor cells: Human cervical epitheloid carcinoma (HeLa), human renal clear cell carcinoma (CAKI-1), human malignant melanoma (RPMI-7951) and mouse malignant melanoma (B16-F1) were procured from ATCC (Rockville, MD) and maintained in vitro with MEM medium (Mediatech, Inc., Herndon, VA) supplemented with 10% heat-inactivated fetal bovine serum (American Qualex, San Clemente, CA), 10mM glutamine, 100 U/ml penicillin, and 100 µg/ml streptomycin (Sigma Chemicals, Saint Louis, MO) (complete medium). […] Cell viability was assessed by trypan blue dye exclusion test and the cell number was adjusted to required concentration. Colorimetric MTT assay: Cytotoxic effects of the hypoestoxide compounds of formulas I and II (JO-4A) were determined in vitro by a colorimetric assay (Mosmann, T., J. Immunol. Methods, 65: 55-63, 1983). […] Mixing with a multichannel pipetter dissolved the dark blue crystals and the absorbance was measured at 545-650 nm using an ELISA plate reader. […] The tumors were measured with a microcaliper, and the tumor volume was calculated by the formula: Length x width x height x 0.5236 (Jungwirth, A. et al., Proc. Natl. Acad. Sci. USA, 94:5810-5813, 1997). […]

Compound	toxicity to lymphocytes (human PBMCs)	IC50 [1]
C=C1C(=O)C[C@H]2C[C@@H]3O[C@@]3(C)CC[C@@H]3O[C@@]3(C)C[C@@H](OC(C)=O)[C@H]1C2(C)C [JO-4, hypoestoxide]	not toxic	–
C=C1C(=O)CC2CC3OC3(C)CCC3OC3(C)CC(O)C1C2(C)C (centres unmarked) [JO-4A]	–	10 to 12.5 µM
